From PubChem BioAssay AID1159557 (GlaxoSmithKline (GSK), 2015)
Active and inactive are the calls of the source. How the calls were made is not given here.

System: Trypanosoma brucei growth inhibition
Assay: T. brucei growth inhibition (AID 1159557);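 further: parasites exposed to compound for 48 h before the resazurin readout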

| IC50 | Compound |
| --- | --- |
| 0.79 µM | COCCn1cnc2cc(NC(=O)C3CCCCC3)cc(C(=O)N3CCc4sccc4C3)c21 |
| > 40 µM (inactive) | O=C(Nc1cccc(Cl)c1)N1CCCCC1c1cccnc1 (stereo not drawn) |
| 0.079 µM | COc1cnc2ccc(=O)n(CCN3CCC(NC(=O)c4ccc(Cl)cc4)CC3)c2c1 |
| 0.63 µM | CNC(=O)C1Cc2ccccc2N1C(=O)Cc1ccccc1 (stereo not drawn) |
| 13 µM | O=C(CN1CCN(c2ccccn2)CC1)Nc1cc(S(=O)(=O)N2CCCCCC2)ccc1Cl |
| 0.4 µM | Cc1[nH]n2c(=O)c3c(nc2c1-c1ccc(F)cc1)CCCC3 |
| 0.1 µM | CCN(CC)c1ncc(C(=O)c2ccc([N+](=O)[O-])o2)s1 |
| 25 µM | CNc1cc(Cn2c(C(=O)c3cc(C)cc(Cl)c3)c(C(C)C)c(=O)[nH]c2=O)ccn1 |
| 0.4 µM | Cc1[nH]nc(-c2nc3ccccc3[nH]2)c1C(=O)NC1CCCNC1 (stereo not drawn) |
| > 40 µM (inactive) | N#Cc1cccc(CN2CCC(c3nc(-c4ccc(C(F)(F)F)nc4)no3)CC2)c1 |
| 0.025 µM | Cc1cnc(Nc2cc(Cc3ccccc3)nc(NC3CCC(O)CC3)n2)s1 (stereo not drawn) |
| 0.32 µM | CC(=O)Nc1ccc(CN2CCC(N3CC(c4ccccc4)(c4ccccc4)OCC3=O)CC2)cc1 |
| 0.16 µM | CS(=O)(=O)c1ccc(Nc2nccc(-c3cnn4ncccc34)n2)cc1 |
| > 40 µM (inactive) | CN(Cc1ccc(C(N)=O)cc1)C(c1ccc(F)cc1)c1cccnc1 (stereo not drawn) |
| 13 µM | CC(c1ccccn1)N(C)Cc1nc2ccccc2n1C(C)C (stereo not drawn) |
| 0.5 µM | COc1cc(OC)cc(C(=O)N[C@@H](CC(C)C)C(=O)NC2(C#N)CC2)c1 |
| 0.32 µM | O=C1CN(Cc2ccco2)C2CS(=O)(=O)CC2N1c1ccc(Cl)cc1 (stereo not drawn) |
| 0.63 µM | CC(C)(C)CC(=O)NCc1noc(COc2ccccc2)n1 |
| 2.5 µM | CC(C)COC(=O)Nc1ccc(N2CCC(CNS(=O)(=O)c3ccccc3)CC2)c(F)c1 |
| 0.63 µM | O=C(O)[C@H]1C[C@@H]1c1ccc(-c2ccc(CN(CCc3ccccn3)C(=O)C3CCC3)cc2)cc1 |
| 0.4 µM | Cn1ccnc1CN1CCc2[nH]cnc2C1c1ccccc1OCc1ccccc1 (stereo not drawn) |
| 1 µM | Cc1cc(C)cc(NS(=O)(=O)c2cc(-c3cc(C)[nH]n3)ccc2C)c1 |

| IC50 | Compound |
| --- | --- |
| 7.9 µM | O=C(CCCNC(=O)c1ccc(Cl)cc1)Nc1nc(-c2ccccn2)cs1 |
| 25 µM | O=C(c1cc2cc(Cl)ccc2[nH]1)N1CCCCC1c1cccnc1 (stereo not drawn) |
| 0.63 µM | COc1ccc(NS(=O)(=O)c2cccc(NC(=O)c3cc(F)cc(F)c3)c2)cc1 |
| 5 µM | CN(C)CCN(C)Cc1ccc(F)cc1NS(=O)(=O)c1ccc(Cl)c(Cl)c1 |
| 0.05 µM | Cc1cc(Nc2cc(C3CC3)[nH]n2)nc(N2CCCC2)n1 |
| 3.2 µM | CCCc1cc(N)nc(-c2cc(CCC)cc(N)n2)c1 |
| 0.4 µM | O=C(NCC1CCCCN1C(=O)c1cccc2ccccc12)c1ccccc1 (stereo not drawn) |
| 25 µM | COc1ccc(C)cc1-c1csc(NC(=O)C(C)n2ccnc2)n1 (stereo not drawn) |
| 10 µM | COc1ccc(C(=O)Nc2cc(C(F)(F)F)ccc2N2CCOCC2)c(OC)c1 |
| 0.5 µM | CCC(CC)C(=O)Nc1ccc(-c2nnc(-c3ccc(OC)cc3)o2)cc1 |
| 0.32 µM | Cc1nn2c(NCCCO)c3c(nc2c1-c1cccs1)CCC3 |
| 25 µM | O=C(c1cccc(Nc2ncc(-c3ccc4c(c3)OCO4)cn2)c1)N1CCOCC1 |
| 32 µM | O=S(=O)(c1cccc(CSc2nnc(-c3ccc4c(c3)OCO4)o2)c1)N1CCOCC1 |
| 5 µM | COc1ccc(NS(=O)(=O)c2cc(NC(=O)Cc3ccc(C)cc3)ccc2N2CCOCC2)cc1 |
| 0.2 µM | COc1ncc(-c2ccc3nccc(-c4ccncc4)c3c2)cc1NS(=O)(=O)C1CC1 |
| > 40 µM (inactive) | FC(F)(F)c1cc(C2CCCN(Cc3c[nH]c4ccccc34)C2)nc2ncnn12 (stereo not drawn) |
| 25 µM | COc1cc2c(cc1OC)[C@H]1[C@@H](C)c3ccc(OC)c(OC)c3CN1CC2 |
| 16 µM | CCCCN(C(=O)c1ccc(NC(=O)C(C)C)cc1)c1ccccc1 |
| 0.4 µM | N#Cc1cc(-c2ccnc(Nc3cccc(CN4CCOCC4)c3)n2)ccc1NCCN |
| > 40 µM (inactive) | Cc1nn(-c2nc(N)nc(-c3ccccn3)n2)c(C)c1Cc1ccccc1 |
| 25 µM | CCN(CC)c1ccc(S(=O)(=O)N(CC)CC)c2nonc12 |
| 6.3 µM | c1ccc(-c2nc(NC3CCCC3)c3ccccc3n2)nc1 |

| IC50 | Compound |
| --- | --- |
| 25 µM | CCCN(Cc1ccc(OC)c(OC)c1)Cc1cc(=O)c2c(C)cc(C)cc2[nH]1 |
| 0.16 µM | COc1cccc2sc(CN(C)C(=O)C3CNCCN3c3ccc(F)cc3)c(C)c12 (stereo not drawn) |
| 0.25 µM | O=C(NCCc1csc(-c2ccc(F)cc2)n1)c1cccs1 |
| 5 µM | Cc1cc(N(C)C)nc2ccc(Cc3cnc(N)nc3N)cc12 |
| 10 µM | Cc1nn(C2CCS(=O)(=O)C2)c(C)c1CN(C)C(=O)C=Cc1sc2ccccc2c1Cl (stereo not drawn) |
| > 40 µM (inactive) | CC1(Oc2cncc(Cl)c2)CCN(Cc2cc3ccccc3[nH]2)C1 (stereo not drawn) |
| 20 µM | O=C(CN1CCN(S(=O)(=O)c2cccc([N+](=O)[O-])c2)CC1)Nc1ccc(Oc2ccccc2)cc1 |
| 0.25 µM | COc1cnc2ccc(=O)n(CCN3CCC(NC(=O)Cc4ccc(Cl)c(Cl)c4)CC3)c2c1 |
| 0.1 µM | COc1ccc(Nc2nc(NC3CCC(O)CC3)ncc2Br)c(C(N)=O)c1 (stereo not drawn) |
| 0.063 µM | O=C1NCc2cccc(Nc3nc(NC4CCC(O)CC4)ncc3Br)c21 (stereo not drawn) |
| > 50 µM (inactive) | O=C1CN(C(=O)c2cccc(Nc3ncc(-c4ccc5c(c4)OCO5)cn3)c2)CCN1 |
| 10 µM | O=C(CN(c1cccc(C(F)(F)F)c1)S(=O)(=O)c1ccc(Cl)cc1)NCc1ccc(F)c(F)c1 |
| 25 µM | COCCn1c(-c2ccccc2)cnc1NCc1ccccc1OC |
| 0.25 µM | Cc1ccc(S(=O)(=O)Nc2ccc(CN3CCN(C(=O)c4cccc(C)c4)CC3)cc2)cc1 |
| 0.013 µM | Nc1ncnc2c1ncn2[C@@H]1O[C@H](CO)C[C@H]1O |
| 2.5 µM | CCCc1cc(C(=O)Nc2ncc(-c3cccc(Br)c3)n2C)n[nH]1 |
| > 40 µM (inactive) | N#Cc1ccc(S(=O)(=O)N2CCC3(CCN(c4ccccc4)C3=O)CC2)cc1 |
| 10 µM | O=c1[nH]c(C=Cc2cccc(OCCOc3ccccc3)c2)nc(O)c1[N+](=O)[O-] |
| 0.32 µM | COc1cccc(NS(=O)(=O)c2ccc3[nH]cc(C(=O)NCCC(C)C)c(=O)c3c2)c1 |
| 0.25 µM | CCc1ccccc1[C@@H](C)NC(=O)c1cnc2c(cnn2CC)c1NC1CCN(C(N)=O)CC1 |
| 0.079 µM | NS(=O)(=O)c1ccc(Nc2nccc(-c3cnn4ncccc34)n2)cc1 |
| 25 µM | CCNc1cc(-c2ccccn2)nc(Nc2ccccc2)n1 |

| IC50 | Compound |
| --- | --- |
| 25 µM | CC(C(=O)Nc1ccccc1F)N(C)CC(=O)Nc1cccc2ccccc12 (stereo not drawn) |
| 0.4 µM | O=C(CSc1nnc2ccc(-c3ccc(F)cc3)nn12)N1CCCCC1 |
| 6.3 µM | O=C(NCc1ccncc1)c1ccccc1N1CCCN(C(=O)Cc2ccc(F)c(F)c2)CC1 |
| 5 µM | CCS(=O)(=O)Nc1ccc(C2=NN(C(=O)c3cccs3)C(c3ccccc3OC)C2)cc1 (stereo not drawn) |
| > 40 µM (inactive) | COc1ccc(OC)c2c(=O)c(Cc3ccccc3)c(C)[nH]c12 |
| > 40 µM (inactive) | O=[N+]([O-])c1cccc(Nc2cncc(-c3ccccc3CO)c2)c1 |
| 0.063 µM | Cc1cc(Br)sc1CNCCCNc1cc(=O)c2ccccc2[nH]1 |
| 25 µM | COc1ccc(-c2nc3ccncc3c(=O)n2CCOc2ccccc2)cc1 |
| 13 µM | O=C(CN(Cc1ccccn1)Cc1ccccn1)NCc1ccc(-c2csnn2)cc1 |
| 0.13 µM | Cc1ncsc1CNc1cnc(-c2ccc3c(c2)OCCO3)c(-c2cnn(C)c2)c1 |
| 0.79 µM | COc1ccc(S(=O)(=O)Nc2ccc(C(=O)Nc3nc(-c4ccccn4)cs3)cc2)cc1 |
| 0.63 µM | COc1ccc(C2CC(c3ccccc3Cl)=NN2C(=O)CNC(=O)C2CCCC2)cc1 (stereo not drawn) |
| 0.13 µM | CCCCc1cc(Nc2cc(C3CCC3)[nH]n2)nc(N2CCC2C(N)=O)n1 (stereo not drawn) |
| 0.63 µM | COc1cc(-c2noc(CC#N)n2)ccc1OC(F)F |
| 16 µM | O=C1CN(C2CCCc3c(OCc4ccncc4)cccc32)C(=O)N1C1CCCCC1 (stereo not drawn) |
| 16 µM | O=C(c1cccc(Cl)c1Cl)N1CCn2c1nc(-c1ccncc1)cc2=O |
| 0.004 µM | O=C1OCc2ccc(Nc3nccc(-c4cnn5ncccc45)n3)cc21 |
| 25 µM | O=c1ccn(-c2ccc([N+](=O)[O-])cc2Cl)c2ccc(F)cc12 |
| 13 µM | Cc1ccc(C)c(-n2nnnc2Sc2nc([N+](=O)[O-])nn2C)c1 |
| 0.5 µM | CCOc1ccc(CC(=O)N2c3ccccc3CC2C(=O)NC)cc1 (stereo not drawn) |
| > 40 µM (inactive) | O=C(NCc1ccc(-n2cccc2)cc1)c1nc(Cn2ccc([N+](=O)[O-])n2)no1 |
| 0.5 µM | COc1cc(Nc2nccc(Nc3onc(C)c3C)n2)cc(S(=O)(=O)C2CCOCC2)c1 |

| IC50 | Compound |
| --- | --- |
| 0.16 µM | CCc1c(C)nc(-n2nc(C)cc2NC(=O)COc2ccccc2F)[nH]c1=O |
| > 13 µM (inactive) | O=C(Nc1n[nH]c(-c2ccccn2)n1)C1CC1c1ccccc1 (stereo not drawn) |
| 32 µM | c1ccc2c(CCOc3nccnc3-c3ccncc3)c[nH]c2c1 |
| 0.32 µM | COc1ncc(-c2ccc3ncnc(N4CCOCC4)c3c2)cc1NS(C)(=O)=O |
| 0.5 µM | O=C(NCCc1nc(-c2ccc(F)c(F)c2)n[nH]1)C1CCCCC1 |
| 13 µM | Cc1ccc2nc(N(Cc3cccnc3)C(=O)CCc3ccccc3)sc2c1 |
| 0.63 µM | NCc1csc(Nc2cc(Oc3ccccc3)ncn2)n1 |
| 0.4 µM | CNC(=O)C1Cc2ccccc2N1C(=O)Cc1ccc(OC)cc1 (stereo not drawn) |
| 0.79 µM | O=c1cc(CSc2ccc(Cl)cc2)nc(-c2ccccn2)[nH]1 |
| 0.079 µM | NC(=O)c1cc(F)ccc1Nc1nc(NC2CCC(O)CC2)ncc1Br (stereo not drawn) |
| 2.5 µM | CCN(Cc1nc2ccc(C(=O)N3CCN(c4ncccn4)CC3)cc2[nH]1)C1CCCc2cccnc21 (stereo not drawn) |
| > 40 µM (inactive) | COc1ccccc1C=CCN1C[C@H]2CCC[C@@H](C1)C2(O)c1cccnc1 (stereo partly drawn) |
| 25 µM | Clc1ccc(Sc2cnccc2N2CCOCC2)cc1 |
| > 40 µM (inactive) | COc1cccc(Nc2cc(C)nc(-c3ccccn3)n2)c1 |
| > 40 µM (inactive) | Cc1cc2cncn2c(C2CCCCN2C(=O)c2cccs2)n1 (stereo not drawn) |
| 10 µM | N#Cc1cccc(CNc2ccc(-c3cnn(CC4CC4)c(=O)c3C#N)cc2)c1 |
| 20 µM | COc1ccc2c(Cl)c(C(=O)N3CCC3)sc2c1Cl |
| 1.3 µM | COc1ccc(CNc2cc(C3CC3)nc(-c3nccn3C)n2)cc1 |

| Compound | IC50 |
| --- | --- |
| O=[N+]([O-])c1ccc(C2=CC(c3ccccc3)=NCCN2)cc1 | 6.3 µM |
| CCN(CC)S(=O)(=O)c1ccc(Cn2nc(C(=O)Nc3ccncn3)c3ccccc32)cc1 | 32 µM |
